Data taken from ChEMBL document CHEMBL5500373, “Lead optimization based design, synthesis, and pharmacological evaluation of quinazoline derivatives as multi-targeting agents for Alzheimer's disease treatment” (Eur J Med Chem, 2024).
Activity calls are given as the source filed them. No cut-off for these calls is given here.

Experiments:
[1] = molecular target: T1, Acetylcholinesterase (Homo sapiens, UniProt P22303); assay: Inhibition of human erythrocyte AChE using acetylthiocholine iodide as substrate preincubated for 30 mins followed by substrate addition and measured after 30 mins by DTNB based Ellman's method
[2] = molecular target: Cholinesterase (Homo sapiens, UniProt P06276); assay: Inhibition of human serum BChE using butyrylthiocholine iodide as substrate preincubated for 30 mins followed by substrate addition and measured after 30 mins by DTNB based Ellman's method
[3] = molecular target: T1, Acetylcholinesterase; assay: Non-competitive inhibition of human AChE using varying concentrations of acetylthiocholine iodide as substrate assessed as reduction in Vmax with constant Km at 0.03 to 0.3 uM by Lineweaver-Burk double reciprocal plot analysis; details: dose 0.03-0.3 µM
[4] = molecular target: T1, Acetylcholinesterase; assay: Non-competitive inhibition of human AChE using acetylthiocholine iodide as substrate assessed as inhibition constant at 0.03 to 0.3 uM by Dixon plot analysis
[5] = molecular target: T1, Acetylcholinesterase; assay: Inhibition of human AChE using acetylthiocholine iodide as substrate assessed as reduction in enzyme activity at 10 to 100 times IC50 incubated for 30 mins
[6] = molecular target: Amyloid-beta precursor protein (Homo sapiens) (UniProt P05067); assay: Inhibition of self induced amyloid beta (1 to 42 residues) (unknown origin) aggregation at 5 to 20 uM measured after 48 hrs by thioflavin T based fluorescence analysis relative to control; details: dose 5-20 µM
[7] = molecular target: Amyloid-beta precursor protein (Homo sapiens) (UniProt P05067); assay: Inhibition of self induced amyloid beta (1 to 42 residues) (unknown origin) aggregation assessed as reduction in NFI measured after 48 hrs by thioflavin T based fluorescence analysis; details: dose 5-20 µM
[8] = molecular target: Amyloid-beta precursor protein (Homo sapiens) (UniProt P05067); assay: Inhibition of amyloid beta (1 to 42 residues) (unknown origin) aggregation assessed as reduction in fibrils measured after 3 days by AFM analysis; details: time 3.0 day
[9] = molecular target: Amyloid-beta precursor protein (Homo sapiens) (UniProt P05067); assay: Inhibition of amyloid beta (1 to 42 residues) (unknown origin) aggregation assessed as disaggregation by measuring reduction in fluorescence intensity measured after 3 days by confocal microscopic analysis; details: time 3.0 day
[10] = Neurotoxicity against retinoic acid/BDNF differentiated human SH-SY5Y cells assessed as reduction in cell viability at 80 uM incubated for 24 hrs by MTT assay relative to control; assay type: toxicity, cell-based
[11] = Acute toxicity in female Wistar rat assessed as signs of toxicity at 100 to 500 mg/kg, po measured after 14 days; assay type: organism-based; details: in vivo, 336 h, dose 100-500 mg/kg, time 14 day
[12] = Acute toxicity in female Wistar rat assessed as adverse side effects at 100 to 500 mg/kg, po measured after 14 days; assay type: organism-based; details: in vivo, 336 h, dose 100-500 mg/kg, time 14 day
[13] = Acute toxicity in female Wistar rat assessed as weight loss at 100 to 500 mg/kg, po measured upto 5 days; assay type: organism-based; details: in vivo, 120 h, dose 100-500 mg/kg, time < 5 day
[14] = Acute toxicity in female Wistar rat assessed as effect on renal functional parameters at 100 to 500 mg/kg, po measured after 14 days; assay type: organism-based; details: in vivo, 336 h, dose 100-500 mg/kg, time 14 day
[15] = Acute toxicity in female Wistar rat assessed as histopathological changes in kidneys at 100 to 500 mg/kg, po measured after 14 days; assay type: organism-based; details: in vivo, 336 h, dose 100-500 mg/kg, time 14 day
[16] = Acute toxicity in female Wistar rat assessed as histopathological changes in liver at 100 to 500 mg/kg, po measured after 14 days; assay type: organism-based; details: in vivo, 336 h, dose 100-500 mg/kg, time 14 day
[17] = tested on: Rattus norvegicus; assay: Reversal of amyloid beta (1 to 42 residues) induced cognitive impairment in female Wistar rat assessed as reduction in escape latency time at 20 mg/kg, po pretreated with amyloid beta for 7 days followed by compound administration and measured after 5 days by Morris water maze test; assay type: functional, organism-based; details: time 5.0 day
[18] = tested on: Rattus norvegicus; assay: Reversal of amyloid beta (1 to 42 residues) induced cognitive impairment in female Wistar rat assessed as increase in total platform crossing at 20 mg/kg, po pretreated with amyloid beta for 7 days followed by compound administration and measured after 5 days by Morris water maze test; assay type: functional, organism-based; details: time 5.0 day
[19] = tested on: Rattus norvegicus; assay: Reversal of amyloid beta (1 to 42 residues) induced cognitive impairment in female Wistar rat assessed as reduction in amyloid beta level in brain hippocampus at 20 mg/kg, po pretreated with amyloid beta for 7 days followed by compound administration and measured after 5 days by immunohistochemistry analysis; assay type: functional, organism-based; details: time 5.0 day
[20] = tested on: Rattus norvegicus; assay: Reversal of amyloid beta (1 to 42 residues) induced cognitive impairment in female Wistar rat assessed as increase in neuronal density in brain at 20 mg/kg, po pretreated with amyloid beta for 7 days followed by compound administration and measured after 5 days by Nissls staining based light microscopic analysis; assay type: functional, organism-based; details: time 5.0 day
[21] = Toxicity in Drosophila melanogaster Oregon R-positive assessed as reduction in cell viability upto 50 uM measured until 15 days; details: 360 h, time 15 day
[22] = Toxicity in Drosophila melanogaster Oregon R-positive assessed as reduction in eclosed flies at pupal stage at 100 uM measured until 15 days relative to control; design: scale not given: the % may be the effect or the level left; details: 360 h, time 15 day
[23] = Toxicity in Drosophila melanogaster Oregon R-positive assessed as reduction in eclosed flies at embryonic stage at 200 uM measured until 15 days relative to control; design: scale not given: the % may be the effect or the level left; details: 360 h, time 15 day
[24] = tested on: Drosophila melanogaster; assay: Reversal of ey-GAL4 driven UAS-amyloid beta induced cellular toxicity in Drosophila melanogaster Oregon R-positive model assessed as increase in cell viability in gut at 1 uM by MTT assay relative to control; assay type: functional
[25] = tested on: Drosophila melanogaster; assay: Reversal of ey-GAL4 driven UAS-amyloid beta induced cellular toxicity in Drosophila melanogaster Oregon R-positive model assessed as increase in cell viability in gut at 10 uM by MTT assay relative to control; assay type: functional
[26] = tested on: Drosophila melanogaster; assay: Reversal of ey-GAL4 driven UAS-amyloid beta induced cellular toxicity in Drosophila melanogaster Oregon R-positive model assessed as increase in cell viability in gut at 50 uM by MTT assay relative to control; assay type: functional
[27] = tested on: Drosophila melanogaster; assay: Reversal of ey-GAL4 driven UAS-amyloid beta induced cellular toxicity in Drosophila melanogaster Oregon R-positive model assessed as increase in rescued eye phenotype at 5 uM by trinocular stereo-zoom microscope relative to control; assay type: functional
[28] = tested on: Drosophila melanogaster; assay: Reversal of ey-GAL4 driven UAS-amyloid beta induced cellular toxicity in Drosophila melanogaster Oregon R-positive model assessed as increase in rescued eye phenotype at 10 uM by trinocular stereo-zoom microscope relative to control; assay type: functional
[29] = tested on: Drosophila melanogaster; assay: Reversal of ey-GAL4 driven UAS-amyloid beta induced cellular toxicity in Drosophila melanogaster Oregon R-positive model assessed as increase in rescued eye phenotype at 15 uM by trinocular stereo-zoom microscope relative to control; assay type: functional
[30] = tested on: Drosophila melanogaster; assay: Reversal of ey-GAL4 driven UAS-amyloid beta induced cellular toxicity in Drosophila melanogaster Oregon R-positive model assessed as reduction in severe ommatidial death eye phenotype at 15 uM by trinocular stereo-zoom microscope relative to control; assay type: functional; design: scale not given: the % may be the effect or the level left
[31] = tested on: Drosophila melanogaster; assay: Reversal of ey-GAL4 driven UAS-amyloid beta induced cellular toxicity in Drosophila melanogaster Oregon R-positive model assessed as reduction in mild ommatidial death eye phenotype at 10 uM by trinocular stereo-zoom microscope relative to control; assay type: functional; design: scale not given: the % may be the effect or the level left
[32] = Tmax in male Wistar rat at 20 mg/kg, po measured upto 32 hrs by high-performance liquid chromatography; assay type: ADME, organism-based; details: in vivo
[33] = AUC (0 to t) in male Wistar rat at 20 mg/kg, po measured upto 32 hrs by high-performance liquid chromatography; assay type: ADME, organism-based; details: in vivo
[34] = MRT in male Wistar rat at 20 mg/kg, po measured upto 32 hrs by high-performance liquid chromatography; assay type: ADME, organism-based; details: in vivo

T1 sequence (P22303 whole entry): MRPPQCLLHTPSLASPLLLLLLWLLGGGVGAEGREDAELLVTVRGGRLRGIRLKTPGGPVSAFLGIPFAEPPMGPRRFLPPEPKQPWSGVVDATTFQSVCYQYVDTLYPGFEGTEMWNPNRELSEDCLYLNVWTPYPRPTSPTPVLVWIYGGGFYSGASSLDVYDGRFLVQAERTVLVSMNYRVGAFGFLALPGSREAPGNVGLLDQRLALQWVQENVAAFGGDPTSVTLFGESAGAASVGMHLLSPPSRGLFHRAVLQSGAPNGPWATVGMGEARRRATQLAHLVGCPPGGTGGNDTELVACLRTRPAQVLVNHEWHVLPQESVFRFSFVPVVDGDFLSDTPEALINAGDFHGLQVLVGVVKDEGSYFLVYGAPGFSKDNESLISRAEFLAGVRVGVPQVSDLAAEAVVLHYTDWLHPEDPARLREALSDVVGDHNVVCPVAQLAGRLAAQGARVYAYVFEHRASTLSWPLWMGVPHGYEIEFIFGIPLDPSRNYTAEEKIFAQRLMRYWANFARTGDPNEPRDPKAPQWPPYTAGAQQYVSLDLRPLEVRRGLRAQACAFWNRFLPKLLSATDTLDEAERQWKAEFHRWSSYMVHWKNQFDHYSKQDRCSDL
Sequence of Amyloid-beta precursor protein (Homo sapiens) (P05067 whole entry, the tested form may be a part): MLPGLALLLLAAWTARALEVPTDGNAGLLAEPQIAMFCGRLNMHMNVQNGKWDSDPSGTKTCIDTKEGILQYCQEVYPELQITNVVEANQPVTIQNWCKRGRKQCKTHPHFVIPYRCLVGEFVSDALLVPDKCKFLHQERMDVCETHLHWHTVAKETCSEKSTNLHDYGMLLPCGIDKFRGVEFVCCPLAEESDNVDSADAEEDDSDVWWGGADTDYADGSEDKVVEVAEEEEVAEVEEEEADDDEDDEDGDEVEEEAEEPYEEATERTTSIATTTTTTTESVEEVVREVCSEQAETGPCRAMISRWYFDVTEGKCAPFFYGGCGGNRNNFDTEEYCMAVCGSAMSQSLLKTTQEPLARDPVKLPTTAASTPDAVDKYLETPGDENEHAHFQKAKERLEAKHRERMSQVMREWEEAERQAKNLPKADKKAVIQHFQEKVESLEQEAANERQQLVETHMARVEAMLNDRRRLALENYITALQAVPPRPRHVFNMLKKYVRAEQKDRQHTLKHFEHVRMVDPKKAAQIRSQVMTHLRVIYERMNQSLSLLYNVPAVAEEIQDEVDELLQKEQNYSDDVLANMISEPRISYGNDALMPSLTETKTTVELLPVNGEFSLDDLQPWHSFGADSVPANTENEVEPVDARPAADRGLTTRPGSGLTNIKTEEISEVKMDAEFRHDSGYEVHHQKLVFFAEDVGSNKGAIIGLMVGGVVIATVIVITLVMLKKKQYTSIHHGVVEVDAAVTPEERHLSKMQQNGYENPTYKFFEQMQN
Sequence of Cholinesterase (P06276 whole entry): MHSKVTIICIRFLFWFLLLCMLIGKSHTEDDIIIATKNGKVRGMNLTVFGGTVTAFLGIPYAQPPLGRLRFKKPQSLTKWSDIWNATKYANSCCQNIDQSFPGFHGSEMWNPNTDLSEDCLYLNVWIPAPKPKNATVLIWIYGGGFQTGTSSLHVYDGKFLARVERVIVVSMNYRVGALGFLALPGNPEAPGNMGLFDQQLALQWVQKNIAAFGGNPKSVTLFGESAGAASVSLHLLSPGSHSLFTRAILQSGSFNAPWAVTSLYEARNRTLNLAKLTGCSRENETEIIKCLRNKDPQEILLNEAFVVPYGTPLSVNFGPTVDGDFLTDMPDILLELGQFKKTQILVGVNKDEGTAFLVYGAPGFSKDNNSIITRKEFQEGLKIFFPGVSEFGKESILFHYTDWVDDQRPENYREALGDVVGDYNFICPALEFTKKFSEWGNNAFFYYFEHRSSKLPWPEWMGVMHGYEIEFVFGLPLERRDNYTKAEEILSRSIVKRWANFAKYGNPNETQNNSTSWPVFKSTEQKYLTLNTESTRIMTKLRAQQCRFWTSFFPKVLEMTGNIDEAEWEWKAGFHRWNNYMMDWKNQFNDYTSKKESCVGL

In the case of `COc1cc2ncnc(N3CCN(Cc4ccccc4)CC3)c2cc1OC`, the IC50 [1] is reported as 283 nM, the IC50 [2] is reported as over 10000 nM and the Activity [3] is reported as “Active”. The Ki [4] was 246 nM, the inhibition [5] was “Active” and the inhibition [6] was 27.3%. The inhibition [7] was “Dose-Dependent Effect”, the inhibition [8] was “Active” and the Activity [9] was “Active”. The Activity [10] was 26%, the Activity [11] was “Non-Toxic” and the Activity [12] was “Non-Toxic”. For the same molecule, the Activity [13] was “Toxic”, the Activity [14] was “Non-Toxic” and the Activity [15] was “Non-Toxic”. The Activity [16] was “Non-Toxic”, the Activity [17] was “Active” and the Activity [18] was “Active”. The Activity [19] was “Active”, the Activity [20] was “Active” and the Activity [21] was “Non-Toxic”. It also gave an Activity [22] of 65%, an Activity [23] of 100% and an Activity [24] of 69%. It also gave an Activity [25] of 62%, an Activity [26] of 75% and an Activity [27] of 27%. The Activity [28] was 36.6%, the Activity [29] was 57% and the Activity [30] was 20%. It also gave an Activity [31] of 37%, a Tmax [32] of 3 h and an AUC(0-t) at 32 h [33] of 6990 ng·h/mL. The MRT [34] was 6.07 h.
